Laboratory results published in patent US12534469B2 (CHILDREN'S HOSPITAL MEDICAL CENTER, priority 2020, dated 2026).
Where two headings read alike, the source gives them in different places.

Legend:
THP-1-Blue NF-κB cells = assay: NF-kB SEAP reporter assay in THP-1-Blue NF-κB cells; type: cell-based; settings: 24 hours
Protocol: THP-1-Blue NF-κB cells (InvivoGen) carrying a stable integrated NF-κB-inducible secreted embryonic alkaline phosphatase (SEAP) reporter construct were plated at a concentration of 1×10^5 cells per well. The cells were stimulated with Pam3CSK4 (1 ng/mL) or hIL1B (1 ng/mL). After 10-20 minutes, the cells were then treated with vehicle (DMSO) or serial dilutions of the test compounds (10 doses tested for each test compound, with a 1:10 dilution series starting at 1 μM or 3 μM) with a final volume of 200 μL for 24 hours at 37° C. After 24 hours, the cells were centrifuged and 20 μL supernatant was incubated with 180 μL QUANTI-Blue reagent at 37° C. for 30-60 minutes. The levels of NF-κB-induced gene expression were measured in a microplate reader at 620 nm.

MOLM14 D835Y cells = assay: MOLM14 D835Y cell viability assay (Cell Titer Glo); type: cell-based
Protocol: (§1) Both cell lines have activated FLT3 receptors, each of which carry additional resistance mutations in the kinase domain (D835Y and F691L, respectively).
(§2) MOLM14 D835Y and MOLM14 F691L cells were grown in RPMI-1640 media supplemented with 20% fetal bovine serum (FBS). For viability/cytotoxicity assessments, cells were seeded into 1536-well white polystyrene tissue culture-treated Greiner plates using a Multidrop Combi dispenser (ThermoFisher), in final volume 5 μL of growth media per well, at a density of 1000 cells per well. After cell addition, 23 nL of test compound were transferred into individual wells (22 doses tested for each test compound, with a 1:2 dilution series starting at 10 μM) via a 1536 pin-tool. Bortezomib (final concentration 2.3 μM) was used as a positive control for cell cytotoxicity. Plates were incubated for 48 hours at standard incubator conditions covered by a stainless steel gasketed lid to prevent evaporation. 48 hours post compound addition, 3 μL of Cell Titer Glo (Promega) were added to each well and plates were incubated at room temperature for 15 minutes with the stainless-steel lid in place. Luminescence readings were taken using a Viewlux imager (PerkinElmer) with a 2 second exposure time per plate.

MOLM14 F691L cells = assay: MOLM14 F691L cell viability assay (Cell Titer Glo); type: cell-based
Protocol: as §1, §2

IRAK1 = target: T1, IRAK1 (Homo sapiens, UniProt P51617); assay: RBC HotSpot Kinase Assay, IRAK1; type: biochemical
T1 construct: purchased Reaction Biology (RBC HotSpot Kinase Assay)
Procedure, shortened: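 Radiometric filter-binding (HotSpot) activity assay on isolated recombinant kinase, possibly truncated or catalytic domain only, in 20 mM Hepes pH 7.5, 10 mM MgCl2, 1 mM EGTA, 2 mM DTT, 1% DMSO. Compound preincubated 20 min with kinase and substrate, then ^33P-ATP added. Reaction 2 h at room temperature, read by P81 filter binding.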

[1] = stimulated with Pam3CSK4 (1 ng/mL), read-out: NF-κB Pam3SCK4 IC50
[2] = stimulated with hIL1B (1 ng/mL), read-out: NF-κB IL1B IC50

T1 sequence (P51617 whole entry): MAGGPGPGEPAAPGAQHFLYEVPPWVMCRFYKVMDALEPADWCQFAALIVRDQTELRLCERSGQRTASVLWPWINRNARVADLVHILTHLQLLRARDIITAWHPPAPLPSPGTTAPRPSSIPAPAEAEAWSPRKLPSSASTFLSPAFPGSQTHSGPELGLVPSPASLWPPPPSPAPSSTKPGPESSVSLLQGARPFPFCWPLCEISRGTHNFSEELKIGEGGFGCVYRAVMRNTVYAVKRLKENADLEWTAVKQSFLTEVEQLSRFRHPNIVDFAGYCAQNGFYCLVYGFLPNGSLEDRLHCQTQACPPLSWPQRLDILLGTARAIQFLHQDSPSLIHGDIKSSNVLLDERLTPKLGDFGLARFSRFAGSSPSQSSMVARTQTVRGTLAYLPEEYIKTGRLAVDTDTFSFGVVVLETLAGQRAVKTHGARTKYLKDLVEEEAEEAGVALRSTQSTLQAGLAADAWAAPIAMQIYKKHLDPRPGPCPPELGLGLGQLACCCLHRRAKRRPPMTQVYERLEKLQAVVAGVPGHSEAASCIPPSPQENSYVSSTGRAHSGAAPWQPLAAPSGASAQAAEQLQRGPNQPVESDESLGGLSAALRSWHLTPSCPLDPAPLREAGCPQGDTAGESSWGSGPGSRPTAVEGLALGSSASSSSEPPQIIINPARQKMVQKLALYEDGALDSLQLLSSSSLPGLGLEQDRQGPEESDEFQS

SMILES | IC50 (THP-1-Blue NF-κB cells; [1]) | IC50 (THP-1-Blue NF-κB cells; [2]) | IC50 (MOLM14 D835Y cells; Homo sapiens, MOLM-14, 48 h) | IC50 (MOLM14 F691L cells; Homo sapiens, MOLM-14, 48 h) | IC50 (IRAK1) | IC50 (MOLM14 D835Y cells; 48 hours) | IC50 (MOLM14 F691L cells; 48 hours)
COc1cc2ncc(-c3nc(N[C@H]4CNCC[C@@H]4F)c(F)cc3F)n2nc1C(C)(C)O [Compound 128, 2-(3-(3,5-difluoro-6-(((3S,4S)-4-fluoropiperidin-3-yl)amino)pyridin-2-yl)-7-methoxyimidazo[1,2-b]pyridazin-6-yl)propan-2-ol] | 108 nM | 196 nM | 34 nM | 386 nM | 129 nM | – | –
COc1cc2ncc(-c3nc(N[C@H]4CNCC[C@@H]4F)c(F)cc3F)n2nc1C1CC1 [Compound 108, 6-(6-cyclopropyl-7-methoxyimidazo[1,2-b]pyridazin-3-yl)-3,5-difluoro-N-((3S,4S)-4-fluoropiperidin-3-yl)pyridin-2-amine] | 30 nM | 13 nM | 3 nM | 29 nM | 5 nM | – | –
COc1cc2ncc(-c3cccc(N[C@H]4CNC[C@@H]4C(F)(F)F)n3)n2nc1C1CC1 [Compound 99, 6-(6-cyclopropyl-7-methoxyimidazo[1,2-b]pyridazin-3-yl)-N-((3R,4S)-4-(trifluoromethyl)pyrrolidin-3-yl)pyridin-2-amine] | 121 nM | 340 nM | 17 nM | 269 nM | 821 nM | – | –
c1cc(N[C@@H]2CCCNC2)nc(-c2cnc3ccc(-c4cnn5ccccc45)nn23)c1 [Compound 19, (R)-N-(piperidin-3-yl)-6-(6-(pyrazolo[1,5-a]pyridin-3-yl)imidazo[1,2-b]pyridazin-3-yl)pyridin-2-amine] | – | – | 402 nM | – | 194 nM | – | –
COc1cc2ncc(-c3nc(N[C@@H]4CCCNC4)c(F)cc3F)n2nc1C(C)(C)O [Compound 127, (R)-2-(3-(3,5-difluoro-6-(piperidin-3-ylamino)pyridin-2-yl)-7-methoxyimidazo[1,2-b]pyridazin-6-yl)propan-2-ol] | 254 nM | 359 nM | 1220 nM | 6120 nM | 146 nM | – | –
COc1cc2ncc(-c3cccc(N[C@@H]4CCNC4)n3)n2nc1C1CC1 [Compound 97, (R)-6-(6-cyclopropyl-7-methoxyimidazo[1,2-b]pyridazin-3-yl)-N-(pyrrolidin-3-yl)pyridin-2-amine] | – | – | 34 nM | – | 253 nM | – | –
COc1cc2ncc(-c3cccc(N[C@H]4CNC[C@@H]4F)n3)n2nc1C1CC1 [Compound 96, 6-(6-cyclopropyl-7-methoxyimidazo[1,2-b]pyridazin-3-yl)-N-((3S,4S)-4-fluoropyrrolidin-3-yl)pyridin-2-amine] | 93 nM | 121 nM | 55 nM | 673 nM | 153 nM | – | –
COc1cc2ncc(-c3nc(N[C@H]4CNC[C@@H]4F)c(F)cc3F)n2nc1C1CC1 [Compound 107, 6-(6-cyclopropyl-7-methoxyimidazo[1,2-b]pyridazin-3-yl)-3,5-difluoro-N-((3S,4S)-4-fluoropyrrolidin-3-yl)pyridin-2-amine] | 18 nM | 15 nM | 11 nM | 137 nM | 3 nM | – | –
COc1cc2ncc(-c3cccc(N[C@H]4CNCC[C@@H]4F)n3)n2nc1C1CC1 [Compound 102, 6-(6-cyclopropyl-7-methoxyimidazo[1,2-b]pyridazin-3-yl)-N-((3S,4S)-4-fluoropiperidin-3-yl)pyridin-2-amine] | 135 nM | 254 nM | 34 nM | 388 nM | 109 nM | – | –
COc1cc2ncc(-c3nc(N[C@H]4CNC[C@@H]4F)c(F)cc3F)n2nc1C(C)(C)O [Compound 126, 2-(3-(3,5-difluoro-6-(((3S,4S)-4-fluoropyrrolidin-3-yl)amino)pyridin-2-yl)-7-methoxyimidazo[1,2-b]pyridazin-6-yl)propan-2-ol] | 92 nM | 121 nM | 109 nM | 1540 nM | 135 nM | – | –
COc1cc2ncc(-c3cccc(N[C@H]4CNC[C@@H]4F)n3)n2nc1C(C)(O)C(F)(F)F (single isomer, unassigned; fast-eluting) [Compound 133] | – | – | – | – | 3320 nM | 86 nM | 969 nM
F[C@H]1CNC[C@@H]1Nc1cccc(-c2cnc3ccc(-c4cnn5ccccc45)nn23)n1 [Compound 9, N-((3S,4S)-4-fluoropyrrolidin-3-yl)-6-(6-(pyrazolo[1,5-a]pyridin-3-yl)imidazo[1,2-b]pyridazin-3-yl)pyridin-2-amine] | – | – | 101 nM | – | 81 nM | – | –
COc1cc2ncc(-c3nc(N[C@@H]4CCCNC4)c(F)cc3F)n2nc1C1CC1 [Compound 106, (R)-6-(6-cyclopropyl-7-methoxyimidazo[1,2-b]pyridazin-3-yl)-3,5-difluoro-N-(piperidin-3-yl)pyridin-2-amine] | 63 nM | 59 nM | 3 nM | 29 nM | 15 nM | – | –
